Converted amounts (≈) assume the structure as drawn.

Data set [1] addresses T1, human macrophage elastase (HME/hMMP-12) (Homo sapiens, UniProt P39900).
T1 construct: 0.5 nM HME; purchased R&D Systems 917-MP
As to the kind of experiment: In vitro HME inhibition test (standard or high-sensitivity). The data set is classed as biochemical. As to conditions: standard or high-sensitivity HME inhibition test; read-out: HME/hMMP-12 IC50. The method, then:
The potency of the compounds according to the invention with respect to HME (MMP-12) is determined in an in vitro inhibition test. The HME-mediated amidolytic cleavage of a suitable peptide substrate leads to an increase in fluorescent light therein. The signal intensity of the fluorescent light is directly proportional to the enzyme activity. The active concentration of a test compound at which half the enzyme is inhibited (50% signal intensity of the fluorescent light) is reported as the IC50 value.
In a 384 hole microtiter plate, in a total test volume of 41 μl, the test buffer (0.1 M HEPES pH 7.4, 0.15 M NaCl, 0.03 M CaCl2, 0.004 mM ZnCl2, 0.02 M EDTA, 0.005% Brij®), the enzyme (0.5 nM HME; from R&D Systems, 917-MP, autocatalytic activation according to the manufacturer's instructions) and the intramolecularly quenched substrate [5 μM Mca-Pro-Leu-Gly-Leu-Glu-Glu-Ala-Dap(Dnp)-NH2; Bachem, M-2670] are incubated in the absence and presence of the test substance (as a solution in DMSO) at 37° C. for two hours. The fluorescence intensity of the test mixtures is measured (excitation […], emission 393 nm). The IC50 values are ascertained by plotting the fluorescent light intensity against the active ingredient concentration.
In this case, an enzyme concentration ten times lower is used (final concentration, for example, 0.05 nM) in order to achieve an elevated test sensitivity. The incubation period chosen for the test is correspondingly longer (for example 16 hours).

The subject of another data set is rat hepatocytes. Briefly: Hepatocyte assay for determination of metabolic stability. As to conditions: after incubation with rat hepatocytes.
Data set [2] in a line: Determination of solubility in PBS buffer pH 6.5. As to conditions: PBS buffer pH 6.5, 1% DMSO, room temperature; for Solubility: 24 h; for solubility at 24 h: PBS buffer, pH 6.5, aqueous buffer, kinetic from dmso stock.
Method: The test substance is dissolved in DMSO. An aliquot is taken from this solution and introduced into PBS buffer pH 6.5 (DMSO content: 1%). This solution/suspension is agitated at room temperature for 24 h. After ultracentrifugation at 114000 g for 30 min, the supernatant is removed, diluted with acetonitrile/water 8:2 and analysed by LC-MSMS. Quantification is effected by means of a five-point calibration curve of the test compound in DMSO.

T1 sequence (P39900 106-470): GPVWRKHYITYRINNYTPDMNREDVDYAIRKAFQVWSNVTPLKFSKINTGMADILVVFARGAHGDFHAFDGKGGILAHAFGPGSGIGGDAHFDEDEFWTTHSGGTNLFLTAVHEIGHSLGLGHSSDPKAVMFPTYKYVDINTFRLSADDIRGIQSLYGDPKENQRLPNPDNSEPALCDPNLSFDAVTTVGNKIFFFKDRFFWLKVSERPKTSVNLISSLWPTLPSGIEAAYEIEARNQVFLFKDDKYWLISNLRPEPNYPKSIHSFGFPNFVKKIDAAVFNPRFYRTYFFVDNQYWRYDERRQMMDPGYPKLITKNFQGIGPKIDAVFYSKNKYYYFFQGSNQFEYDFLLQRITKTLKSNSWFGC
Method for rat hepatocytes: Seven samples from the incubation solution are taken for the LC-MS analysis within a fixed time pattern, in order to determine the half-life (i.e. the degradation) of the particular compound. This half life is used to calculate various “Clearance” parameters (CL) and “Fmax” values (see below).
The CL and Fmax values are a measure of the phase 1 and phase 2 metabolism of the compounds in the hepatocytes. In order to minimize the influence of the organic solvent on the enzymes in the incubation batches, the concentration thereof is generally limited to 1% (acetonitrile) or 0.1% (DMSO).
For all species and breeds, a hepatocyte cell count in the liver of 1.1*10^8 cells/g of liver is expected.
The parameters calculated and the meanings thereof are: • Fmax well-stirred [%] maximum possible bioavailability after oral administration • Calculation: (1-CLblood well-stirred/QH)*100 • CLblood well-stirred [L/(h*kg)] calculated blood clearance (well-stirred model) • Calculation: (QH*CLintrinsic)/(QH+CL′intrinsic) • CL′intrinsic[ml/(min*kg)] maximum ability of the liver (of the hepatocytes) to metabolize a compound (assuming that the liver blood flow is not rate-limiting) • Calculation: CLintrinsic, apparent* species-specific hepatocyte count [1.1* 10^8/g liver]*species-specific liver weight [g/kg] • CL′intrinsic, apparent[ml/(min*mg)] normalizes the elimination constant by dividing it by the hepatocyte cell count x used (x*10^6/ml) • Calculation: kcl[1/min]/(cell count [x*10^6]/incubation volume [ml]) • (QH=species-specific liver blood flow).

Regarding `Cc1ccc2nnn(C[C@@H]3CC[C@H](C(=O)c4ccc(OCC5CCOCC5)cc4)[C@H]3C(=O)O)c(=O)c2c1` (racemic) [Example 16, (+/−)-(1RS,2SR,5RS)-2-[(6-Methyl-4-oxo-1,2,3-benzotriazin-3(4H)-yl)methyl]-5-[4-(tetrahydro-2H-pyran-4-ylmethoxy)benzoyl]cyclopentanecarboxylic acid], in data set [1], the IC50 came to 0.17 nM.

As for “(−)-(1RS,2SR,5RS)-2-{[4-Oxo-6-(trifluoromethyl)-1,2,3-benzotriazin-3(4H)-yl]methyl}-5-[4-(tetra-hydro-2H-pyran-4-ylmethoxy)benzoyl]cyclopentanecarboxylic acid [Example 9]”, the IC50 in data set [1] worked out at 42 nM.

`O=C(O)[C@@H]1[C@@H](Cn2nnc3ccc(C(F)(F)F)cc3c2=O)CC[C@H]1C(=O)c1ccc(SCC2CCOCC2)cc1` (racemic) [Example 15, (+)-(1RS,2SR,5RS)-2-{[4-Oxo-6-(trifluoromethyl)-1,2,3-benzotriazin-3(4H)-yl]methyl}-5-{4-[(tetrahydro-2H-pyran-4-ylmethyl)sulphanyl]benzoyl}cyclopentanecarboxylic acid]: in the data set on rat hepatocytes, the “CLblood (calculated blood clearance, well-stirred)” value was 0.16 L/h/kg and the “Fmax (maximum possible bioavailability after oral administration, well-stirred)” value (“Fmax” below) stood at 96.1%. Besides, in data set [2], the Solubility was determined as 0.1 mg/mL (≈ 174 µM).

Take `O=C(O)[C@@H]1[C@@H](Cn2nnc3ccccc3c2=O)CC[C@H]1C(=O)c1ccc(OCCC2CCOCC2)cc1` (stereo in doubt) [Example 6, (−)-(1RS,2SR,5RS)-2-[(4-Oxo-1,2,3-benzotriazin-3(4H)-yl)methyl]-5-{4-[2-(tetrahydro-2H-pyran-4-yl)ethoxy]benzoyl}cyclopentanecarboxylic acid]: the IC50 in data set [1] came out at 80 nM. The compound also came in with a Solubility in data set [2] of 0.3549 mg/mL (≈ 702 µM).

In the case of `Cc1ccc2nnn(C[C@H]3CC[C@@H](C(=O)c4ccc(OCC5CCOCC5)cc4)[C@@H]3C(=O)O)c(=O)c2c1` (single isomer, unassigned) [Example 18, (−)-(1RS,2SR,5RS)-2-[(6-Methyl-4-oxo-1,2,3-benzotriazin-3(4H)-yl)methyl]-5-[4-(tetrahydro-2H-pyran-4-ylmethoxy)benzoyl]cyclopentanecarboxylic acid], in data set [1], the IC50 was 3.3 nM.

For `Cc1ccc2nnn(C[C@H]3CC[C@@H](C(=O)c4ccc(OCCC5CCOCC5)cc4)[C@@H]3C(=O)O)c(=O)c2c1` (single isomer, unassigned) [Example 21, (−)-(1RS,2SR,5RS)-2-[(6-Methyl-4-oxo-1,2,3-benzotriazin-3(4H)-yl)methyl]-5-{4-[2-(tetrahydro-2H-pyran-4-yl)ethoxy]benzoyl}cyclopentanecarboxylic acid], the IC50 in data set [1] is 78 nM.

In the case of `Cc1ccc2nnn(C[C@H]3CC[C@@H](C(=O)c4ccc(OCC5CCOCC5)cc4)[C@@H]3C(=O)O)c(=O)c2c1` (single isomer, unassigned) [Example 17, (+)-(1RS,2SR,5RS)-2-[(6-Methyl-4-oxo-1,2,3-benzotriazin-3(4H)-yl)methyl]-5-[4-(tetrahydro-2H-pyran-4-ylmethoxy)benzoyl]cyclopentanecarboxylic acid], the IC50 in data set [1] was determined as 0.03 nM. Moreover, the concentration in solution in data set [2] (solubility at 24 h) was 0.25 mg/mL (≈ 494 µM).

Take `O=C(O)[C@@H]1[C@@H](Cn2nnc3ccc(C(F)(F)F)cc3c2=O)CC[C@H]1C(=O)c1ccc(SCC2CCOCC2)cc1` (single isomer, unassigned) [Example 14, (−)-(1RS,2SR,5RS)-2-{[4-Oxo-6-(trifluoromethyl)-1,2,3-benzotriazin-3(4H)-yl]methyl}-5-{4-[(tetrahydro-2H-pyran-4-ylmethyl)sulphanyl]benzoyl}cyclopentanecarboxylic acid]: in data set [1], the IC50 is 10 nM. The same compound yielded a solubility at 24 h in data set [2] of 0.08 mg/mL (≈ 139 µM).

Regarding `O=C(O)[C@@H]1[C@@H](Cn2nnc3ccc(C(F)(F)F)cc3c2=O)CC[C@H]1C(=O)c1ccc(OCCC2CCOCC2)cc1` (racemic) [Example 11, (+)-(1RS,2SR,5RS)-2-{[4-Oxo-6-(trifluoromethyl)-1,2,3-benzotriazin-3(4H)-yl]methyl}-5-{4-[2-(tetrahydro-2H-pyran-4-yl)ethoxy]benzoyl}cyclopentanecarboxylic acid], in the data set with rat hepatocytes, the “CLblood (calculated blood clearance, well-stirred)” value was 0.3 L/h/kg and the “Fmax” value was 92.9%.

Turning to `Cc1ccc2nnn(C[C@H]3CC[C@@H](C(=O)c4ccc(OCCC5CCOCC5)cc4)[C@@H]3C(=O)O)c(=O)c2c1` (racemic) [Example 20, (+)-(1RS,2SR,5RS)-2-[(6-Methyl-4-oxo-1,2,3-benzotriazin-3(4H)-yl)methyl]-5-{4-[2-(tetrahydro-2H-pyran-4-yl)ethoxy]benzoyl}cyclopentanecarboxylic acid], in the data set on rat hepatocytes, the “CLblood (calculated blood clearance, well-stirred)” value was 0.77 L/h/kg and the “Fmax” value turned out to be 81.8%.

As for `O=C(O)[C@H]1[C@H](Cn2nnc3ccc(C(F)(F)F)cc3c2=O)CC[C@@H]1C(=O)c1ccc(SCC2CCOCC2)cc1` (racemic) [Example 13, (+/−)-(1RS,2SR,5RS)-2-{[4-Oxo-6-(trifluoromethyl)-1,2,3-benzotriazin-3 (4H)-yl]methyl}-5-{4-[(tetrahydro-2H-pyran-4-ylmethyl)sulphanyl]benzoyl}cyclopentanecarboxylic acid], the IC50 in data set [1] is 0.48 nM.

For `O=C(O)[C@@H]1[C@@H](Cn2nnc3ccc(C(F)(F)F)cc3c2=O)CC[C@H]1C(=O)c1ccc(OCCC2CCOCC2)cc1` (stereo in doubt) [Example 12, (−)-(1RS,2SR,5RS)-2-{[4-Oxo-6-(trifluoromethyl)-1,2,3-benzotriazin-3(4H)-yl]methyl}-5-{4-[2-(tetrahydro-2H-pyran-4-yl)ethoxy]benzoyl}cyclopentanecarboxylic acid], the IC50 in data set [1] amounted to 90 nM. In data set [2], the Solubility is 0.24 mg/mL (≈ 418 µM).

`O=C(O)[C@@H]1[C@@H](Cn2nnc3ccccc3c2=O)CC[C@H]1C(=O)c1ccc(OCCC2CCOCC2)cc1` (racemic) [Example 5, (+)-(1RS,2SR,5RS)-2-[(4-Oxo-1,2,3-benzotriazin-3(4H)-yl)methyl]-5-{4-[2-(tetrahydro-2H-pyran-4-yl)ethoxy]benzoyl}cyclopentanecarboxylic acid]: in the data set on rat hepatocytes, the “CLblood (calculated blood clearance, well-stirred)” value is 0.87 L/h/kg and the “Fmax” value was determined as 79.2%.

In turn, `Cc1ccc2nnn(C[C@H]3CC[C@@H](C(=O)c4ccc(OCC5CCOCC5)cc4)[C@@H]3C(=O)O)c(=O)c2c1` (racemic) [Example 18, (−)-(1RS,2SR,5RS)-2-[(6-Methyl-4-oxo-1,2,3-benzotriazin-3(4H)-yl)methyl]-5-[4-(tetrahydro-2H-pyran-4-ylmethoxy)benzoyl]cyclopentanecarboxylic acid] registered a Solubility in data set [2] of 0.33 mg/mL (≈ 653 µM).

As a reminder, the Solubility is the dissolved amount per volume that the medium holds. A low value points to little dissolved substance. As usually defined, the solubility is the dissolved amount per volume that the medium holds. Read a low solubility as little dissolved substance.

(Values after US20170114049A1, “2,5-DISUBSTITUTED CYCLOPENTANE CARBOXYLIC ACIDS FOR THE TREATMENT OF RESPIRATORY TRACT DISEASES” (BAYER PHARMA AKTIENGESELLSCHAFT, priority 2014, published 2017).)
